According to patent US8394828B2 (Janssen Pharmaceutica, NV, priority 2003, dated 2013):
Like-named read-outs stand apart in the source and are kept apart here.

Tests used:
[1] = target: T1, human VR1 (Homo sapiens, UniProt Q8NER1); assay: Human VR1 [3H] RTX binding assay; conditions: 3H-RTX binding; for Ki: hVR1, read-out: 3H-RTX binding assay Ki hVR1; for inhibition at 1 µM: compound at 1 μM
T1 construct: expressed in transfected cells; host or cells: HEK293
Protocol: Compounds of the present invention were tested for their ability to inhibit the binding of [^3H] RTX to hVR1 receptors in a [^3H]
HEK293 cells were transfected with human VR1 vanilloid receptors and washed with Hank's Balanced Salt Solution, dissociated with cell dissociation buffer (Sigma), and then centrifuged at 1000×g for 5 min. […] The pelleted membranes were kept in an −80° C. freezer.
Approximately 120 μg protein/ml from membranes were incubated with indicated concentrations of [^3H] RTX in 0.5 ml of the HEPES buffer (pH 7.4) containing 0.25 mg/mL fatty acid-free bovine serum albumin at 37° C. for 60 min. […] The tip of the microcentrifuge tube containing the pellet was cut off. Bound radioactivity was quantified by scintillation counting. Non-specific binding was tested in the presence of 200 nM unlabeled RTX.

[2] = target: T1, human VR1; assay: Human VR1 functional assay (intracellular Ca++, FLIPR, capsaicin challenge); type: cell-based
Protocol: The functional activity of the test compounds was determined by measuring changes in intracellular calcium concentration using a Ca^++-sensitive fluorescent dye and FLIPR™ technology.
EC50 or IC50 values were determined from dose-response studies.

[3] = hVR1, capsaicin challenge, read-out: FLIPR functional assay IC50 hVR1
[4] = FLIPR functional assay IC50 hVR1 60 min, 60 min

T1 sequence (Q8NER1 whole entry): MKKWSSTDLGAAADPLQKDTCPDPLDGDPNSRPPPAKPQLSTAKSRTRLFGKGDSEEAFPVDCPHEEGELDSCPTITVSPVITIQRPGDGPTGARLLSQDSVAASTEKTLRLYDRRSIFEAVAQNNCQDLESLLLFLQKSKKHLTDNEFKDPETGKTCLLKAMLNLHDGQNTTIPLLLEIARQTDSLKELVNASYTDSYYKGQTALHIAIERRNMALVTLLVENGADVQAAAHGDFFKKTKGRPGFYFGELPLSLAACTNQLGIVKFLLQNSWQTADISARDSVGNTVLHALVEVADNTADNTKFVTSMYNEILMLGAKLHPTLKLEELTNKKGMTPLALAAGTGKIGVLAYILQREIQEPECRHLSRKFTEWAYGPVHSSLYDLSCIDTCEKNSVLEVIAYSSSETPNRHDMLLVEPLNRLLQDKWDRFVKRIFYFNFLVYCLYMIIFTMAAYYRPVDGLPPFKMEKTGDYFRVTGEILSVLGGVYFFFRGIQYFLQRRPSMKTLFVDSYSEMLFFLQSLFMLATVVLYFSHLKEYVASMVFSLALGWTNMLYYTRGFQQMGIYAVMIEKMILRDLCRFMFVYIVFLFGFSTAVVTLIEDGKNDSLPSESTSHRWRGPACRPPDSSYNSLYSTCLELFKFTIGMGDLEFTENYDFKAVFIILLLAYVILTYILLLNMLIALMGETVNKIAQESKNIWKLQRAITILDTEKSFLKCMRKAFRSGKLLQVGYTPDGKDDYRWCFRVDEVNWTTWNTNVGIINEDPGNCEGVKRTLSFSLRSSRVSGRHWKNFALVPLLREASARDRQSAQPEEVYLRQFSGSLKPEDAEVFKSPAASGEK

Row | SMILES | Ki [1] | IC50 [2, 3] | inhibition at 1 µM [1] | IC50 [2, 4] | IC50 ([2]; read-out: FLIPR functional assay IC50 hVR1 60 min, 60 min)
1 | CCCCOc1ccc(C(=O)Nc2cnc3ccccc3c2)cc1 [4-Butoxy-N-quinolin-3-yl-benzamide] | 155 nM | 10000 nM |  |  | 
2 | CN1CCCc2cc(C(=O)Nc3cnc4ccccc4c3)ccc21 [1-Methyl-1,2,3,4-tetrahydro-quinoline-6-carboxylic acid quinolin-3-ylamide] | 341 nM | 690 nM | 79% |  | 
3 | CN(Cc1ccccc1)c1ccc(C(=O)Nc2cnc3ccccc3c2)cn1 [6-(Benzyl-methyl-amino)-N-quinolin-3-yl-nicotinamide] |  | 390 nM | 43% |  | 
4 | O=C(Nc1cnc2ccccc2c1)c1ccc(N2CCNCC2)cc1 [4-Piperazin-1-yl-N-quinolin-3-yl-benzamide] |  | 740 nM | 1% |  | 
5 | CN(C(=O)c1ccc(NC2CCCCC2)cc1)c1cnc2ccccc2c1 [4-Cyclohexylamino-N-methyl-N-quinolin-3-yl-benzamide] | 2160 nM | 10000 nM |  |  | 
6 | CCCCN(CCCC)c1ccc(C(=O)Nc2cnc3ccccc3c2)cc1 [4-Dibutylamino-N-quinolin-3-yl-benzamide] | 241 nM | 4600 nM |  | 270 nM | 
7 | CCCCCCCCN(C)c1ccc(C(=O)Nc2cnc3ccccc3c2)cc1 [4-(Octyl-methyl-amino)-N-quinolin-3-yl-benzamide] | 14.7 nM |  | 105% |  | 190 nM
8 | CCCN(C)c1ccc(CCC(=O)Nc2cnc3ccccc3c2)cc1 [3-{4-(Methyl-propyl-amino)-phenyl}-N-quinolin-3-yl-propionamide] | 196 nM | 500 nM |  |  | 
9 | CN(CCCc1ccccc1)c1ccc(C(=O)Nc2cnc3ccccc3c2)cc1 [4-{Methyl-(3-phenyl-propyl)-amino}-N-quinolin-3-yl-benzamide] | 74.1 nM | 10000 nM | 97% | 156 nM | 
10 | CCCCCc1ccc(C=CC(=O)Nc2cnc3ccccc3c2)cc1 [3-(4-Pentyl-phenyl)-N-quinolin-3-yl-acrylamide] | 428 nM |  |  | 5200 nM | 
11 | O=C(Nc1cnc2ccccc2c1)c1ccc(N2CC3CCCC(C3)C2)cc1 [4-(3-Aza-bicyclo{3.3.1}non-3-yl)-N-quinolin-3-yl-benzamide] | 5.15 nM | 170 nM | 99% | 127 nM | 
12 | CCCN(CCc1ccccc1)c1ccc(C(=O)Nc2cnc3ccccc3c2)cc1 [4-(Phenethyl-propyl-amino)-N-quinolin-3-yl-benzamide] | 71.6 nM |  | 105% | 360 nM | 
13 | CCCC1CCN(c2ccc(C(=O)Nc3cnc4ccccc4c3)cc2)CC1 [4-(4-Propyl-piperidin-1-yl)-N-quinolin-3-yl-benzamide] | 103 nM | 16000 nM | 92% | 170 nM | 
14 | O=C(Nc1cnc2ccccc2c1)c1cccc(NC2CCCCC2)c1 [3-Cyclohexylamino-N-quinolin-3-yl-benzamide] |  | 3200 nM | 1% |  | 
15 | O=C(Nc1cnc2ccccc2c1)c1ccc2c(c1)CCCC2 [5,6,7,8-Tetrahydro-naphthalene-2-carboxylic acid quinolin-3-ylamide] | 62.3 nM | 10000 nM |  |  | 
16 | O=C(Nc1cnc2ccccc2c1)c1ccc(N2CCCCCCC2)nc1 [6-Azocan-1-yl-N-quinolin-3-yl-nicotinamide] | 30.4 nM | 5160 nM | 102% | 250 nM | 
17 | CC1CN(c2ccc(C(=O)Nc3cnc4ccccc4c3)cc2)CC(C)O1 (stereo not drawn) [4-(2,6-Dimethyl-morpholin-4-yl)-N-quinolin-3-yl-benzamide] |  | 10000 nM | 18% |  | 
18 | CCCCCN(C)c1cccc(C(=O)Nc2cnc3ccccc3c2)c1 [3-(Methyl-pentyl-amino)-N-quinolin-3-yl-benzamide] | 262 nM | 500 nM | 72% |  | 
19 | CC(C)CCN(C)c1ccc(C(=O)Nc2cnc3ccccc3c2)cc1 [4-{Methyl-(3-methyl-butyl)-amino}-N-quinolin-3-yl-benzamide] | 554 nM | 280 nM | 90% |  | 
20 | CC(=O)N(c1ccc(C(=O)Nc2cnc3ccccc3c2)cc1)C1CCCCC1 [4-(Acetyl-cyclohexyl-amino)-N-quinolin-3-yl-benzamide] |  | 10000 nM | 1% |  | 
21 | O=C(Nc1cnc2ccccc2c1)c1ccc(N2CCCCC2)nc1 [3,4,5,6-Tetrahydro-2H-{1,2′}bipyridinyl-5′-carboxylic acid quinolin-3-ylamide] | 20.5 nM | 4300 nM |  | 140 nM | 

Row | SMILES | Ki [1] | IC50 [2, 3] | inhibition at 1 µM [1] | IC50 [2, 4] | IC50 ([2]; read-out: FLIPR functional assay IC50 hVR1 60 min, 60 min)
22 | CN(c1ccc(C(=O)Nc2cnc3ccccc3c2)cc1)C1CCCC1 [4-(Cyclopentyl-methyl-amino)-N-quinolin-3-yl-benzamide] | 27.9 nM | 185 nM |  |  | 
23 | CCCCN(C)c1ccc(C(=O)Nc2cnc3ccccc3c2)cc1 [4-(Methyl-butyl-amino)-N-quinolin-3-yl-benzamide] | 83.3 nM | 786 nM | 97% | 100 nM | 
24 | O=C(Nc1cnc2ccccc2c1)c1ccc(NC2CCCCC2)nc1 [6-Cyclohexylamino-N-quinolin-3-yl-nicotinamide] |  | 990 nM | 1% |  | 
25 | O=C(Nc1cnc2ccccc2c1)c1ccc2c(c1)CCN2C(=O)c1ccccc1 [1-Benzoyl-2,3-dihydro-1H-indole-5-carboxylic acid quinolin-3-ylamide] |  | 1450 nM | 3% |  | 
26 | CCCCCCCN(C)c1ccc(C(=O)Nc2cnc3ccccc3c2)cn1 [6-(Heptyl-methyl-amino)-N-quinolin-3-yl-nicotinamide] | 97.3 nM | 1500 nM | 90% |  | 
27 | CC(C)(C)C1CCC(C(=O)Nc2cnc3ccccc3c2)CC1 (stereo not drawn) [4-tert-Butyl-cyclohexanecarboxylic acid quinolin-3-ylamide] | 64.9 nM | 10000 nM | 97% |  | 
28 | CCCCCNc1ccc(C(=O)Nc2cnc3ccccc3c2)cc1 [4-Pentylamino-N-quinolin-3-yl-benzamide] | 876 nM | 8100 nM |  | 30000 nM | 
29 | O=C(Nc1cnc2ccccc2c1)c1ccc(N(Cc2ccccc2)Cc2ccccc2)cc1 [4-Dibenzylamino-N-quinolin-3-yl-benzamide] | 441 nM |  | 51% | 4200 nM | 
30 | CCC(C)c1ccc(CCC(=O)Nc2cnc3ccccc3c2)cc1 (stereo not drawn) [3-(4-sec-Butyl-phenyl)-N-quinolin-3-yl-propionamide] | 13.9 nM | 1200 nM |  |  | 
31 | CCCN1CCc2cc(C(=O)Nc3cnc4ccccc4c3)ccc21 [1-Propyl-2,3-dihydro-1H-indole-5-carboxylic acid quinolin-3-ylamide] | 15.6 nM | 410 nM | 93% |  | 
32 | O=C(Nc1cnc2ccccc2c1)c1cc2cc(Cl)ccc2[nH]1 [5-Chloro-1H-indole-2-carboxylic acid quinolin-3-ylamide] |  | 2800 nM | 36% |  | 
33 | CCC=CCCCN(C)c1ccc(C(=O)Nc2cnc3ccccc3c2)cc1 [4-(Hept-4-enyl-methyl-amino)-N-quinolin-3-yl-benzamide] | 29.8 nM | 1900 nM | 104% | 46 nM | 
34 | O=C(Nc1cnc2ccccc2c1)c1ccc2c(c1)CCN2C(=O)C1CCCCC1 [1-Cyclohexanecarbonyl-2,3-dihydro-1H-indole-5-carboxylic acid quinolin-3-ylamide] |  | 1500 nM | 25% |  | 
35 | CCCCCNc1ccc(C(=O)Nc2cnc3ccccc3c2)cn1 [6-Pentylamino-N-quinolin-3-yl-nicotinamide] | 281000 nM |  | 57% | 8000 nM | 
36 | O=C(Nc1cnc2ccccc2c1)c1ccc(N2CCC(Cc3ccccc3)CC2)nc1 [4-Benzyl-3,4,5,6-tetrahydro-2H-{1,2′}bipyridinyl-5′-carboxylic acid quinolin-3-ylamide] | 25.6 nM | 440 nM | 100% |  | 
37 | CCCCCN(C)c1ccc(C(=O)Nc2cnc3ccccc3c2)cc1C [3-Methyl-4-(methyl-pentyl-amino)-N-quinolin-3-yl-benzamide] | 37.9 nM | 54 nM | 107% |  | 
38 | CN(CCC(C)(C)C)c1ccc(C(=O)Nc2cnc3ccccc3c2)cc1 [4-{(3,3-Dimethyl-butyl)-methyl-amino}-N-quinolin-3-yl-benzamide] | 20.9 nM | 10000 nM | 99% | 1300 nM | 
39 | O=C(CCc1ccc(C23CC4CCCC(CC(C4)C2)C3)cc1)Nc1cnc2ccccc2c1 [N-Quinolin-3-yl-3-(4-tricyclo{5.3.1.13,9}dodec-1-yl-phenyl)-propionamide] | 176 nM |  |  | 1900 nM | 
40 | O=C(CCc1ccc2c(c1)CCCC2)Nc1cnc2ccccc2c1 [N-Quinolin-3-yl-3-(5,6,7,8-tetrahydro-naphthalen-2-yl)-propionamide] | 200 nM | 10000 nM |  |  | 
41 | O=C(Nc1cnc2ccccc2c1)c1ccc(N2CCCCCCC2)cc1 [4-Azocan-1-yl-N-quinolin-3-yl-benzamide] | 18.5 nM | 290 nM |  |  | 
42 | CCCCCCN(CCCCCC)c1ccc(C(=O)Nc2cnc3ccccc3c2)cc1 [4-Dihexylamino-N-quinolin-3-yl-benzamide] | 185 nM |  | 74% | 2900 nM | 
